Measured values from patent US8648086B2, “5,6-bicyclic heteroaryl-containing urea compounds as kinase inhibitors” (Ascepion Pharmaceuticals, Inc., priority 2009, dated 2014).

Legend:
HT-29 human colon cancer = assay: In vivo anti-tumor efficacy, HT-29 xenograft; conditions: Colon cancer HT-29, nu/nu Balb/c mice, 50 mg/kg oral once per day, n = 2 × 3
Procedure: Female (nu/nu) Balb/c athymic mice at 4-6 weeks of age were injected subcutaneously (s.c.) with MDA-MB-231 human breast cancer cells, A549 human non-small cell lung cancer cells, U87-MG human glioblastoma cells, PC-3 human prostate cancer cells, HT-29 human colon cancer, BEL-7404 human hepatocellular carcinoma, or MKN-45 human gastric cancer cells (ATCC, 5×10^6 cells suspended in 100 μl DMEM medium). Treatment was initiated after the tumor mass grown from s.c. implanted tumor cells reached a median volume of 200-400 mm^3. Mice were randomized into groups with three in each group for small-sample efficacy tests such that the median tumor volume is nearly equal among all groups. […] Tumor volumes were assessed at least twice weekly by caliper measurement from the start of treatment. Tumor volume was calculated using the formula ½×L×W^2 (L: length of tumor's long axis, W: length of tumor's short axis). […] The efficacy of compounds in reducing tumor growth was assessed by the index Tumor Growth Inhibition (TGI). TGI for a given treatment period was calculated using the group mean tumor volumes according to the formula: TGI=100×(VVehicle—group−VTreatment—group)÷VVehicle—group wherein VVehicle—group represents the mean tumor volume for the group treated with vehicle and VTreatment—group represents the mean tumor volume of the group treated with a compound.

EPHA2 = molecular target: T1, EPHA2 (Homo sapiens, UniProt P29317); assay: KINOMEscan competition binding assay, EPHA2; conditions: compound at 100 nM; lower number indicates stronger hit
T1 construct: purchased KINOMEscan service (Ambit Biosciences, San Diego)
T1 sequence (P29317 24-976): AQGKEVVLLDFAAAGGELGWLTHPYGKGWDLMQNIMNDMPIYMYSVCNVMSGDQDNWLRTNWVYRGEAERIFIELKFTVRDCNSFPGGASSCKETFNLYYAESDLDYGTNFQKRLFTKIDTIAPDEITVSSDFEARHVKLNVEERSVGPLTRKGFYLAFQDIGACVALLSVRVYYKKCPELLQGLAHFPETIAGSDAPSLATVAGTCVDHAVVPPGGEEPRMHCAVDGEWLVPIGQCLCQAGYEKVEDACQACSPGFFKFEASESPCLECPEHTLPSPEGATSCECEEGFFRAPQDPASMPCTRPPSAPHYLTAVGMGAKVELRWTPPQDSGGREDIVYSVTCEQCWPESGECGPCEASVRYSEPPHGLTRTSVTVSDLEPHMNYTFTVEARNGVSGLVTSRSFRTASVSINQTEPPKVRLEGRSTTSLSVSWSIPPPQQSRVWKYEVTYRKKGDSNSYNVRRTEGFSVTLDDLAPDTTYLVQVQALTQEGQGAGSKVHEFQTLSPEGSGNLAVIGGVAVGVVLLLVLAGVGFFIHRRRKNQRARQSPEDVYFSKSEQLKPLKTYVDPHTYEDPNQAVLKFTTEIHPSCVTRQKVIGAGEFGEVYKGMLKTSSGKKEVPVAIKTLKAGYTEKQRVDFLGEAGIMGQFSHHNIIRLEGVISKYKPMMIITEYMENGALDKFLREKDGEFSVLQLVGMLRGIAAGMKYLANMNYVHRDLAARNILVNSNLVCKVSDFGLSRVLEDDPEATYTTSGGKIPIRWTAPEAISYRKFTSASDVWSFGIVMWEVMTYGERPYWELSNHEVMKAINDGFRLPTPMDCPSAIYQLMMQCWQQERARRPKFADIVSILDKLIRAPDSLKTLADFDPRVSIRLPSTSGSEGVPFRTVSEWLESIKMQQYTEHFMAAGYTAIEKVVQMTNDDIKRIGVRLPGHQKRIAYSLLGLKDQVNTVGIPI
Procedure: A standard competition binding assay can be used to test the ability of a compound of this invention on competing with both intended and unintended kinases in vitro. To screen a compound against a large number of human kinases, a competition binding assay with an active-site dependent binding technology was performed by KINOMEscan service (Ambit Biosciences, San Diego, Cal., USA). Three components were combined in this assay—DNA-tagged kinase, immobilized ligand, and the test compound. The ability of the test compound to compete with the immobilized ligand was measured by quantitative PCR of the DNA of the DNA tag. A number of the compounds of this invention were screened at the concentration of 100 nM by this binding assay, and the results were reported as “% Ctrl,” and the lower number indicates stronger “hit” in this matrix.

- EPHA2 % Ctrl (EPHA2): 12 % Ctrl
SMILES: Cl.O=C(Nc1cc(Cl)ccc1F)Nc1cccc2c1ccn2Cc1ccnc2[nH]ccc12 [Example 56, 1-(2-Fluoro-5-chlorophenyl)-3-[1-(1H-pyrrolo[2,3-b]pyridin-4-ylmethyl)-1H-indol-4-yl]urea hydrochloride]
- Tumor Growth Inhibition (TGI) (HT-29 human colon cancer): A (the TGI is greater or equal to 50%)
